Measurements reported in article PMC4979471 (Cell Death Discovery, 2015).
Read-outs that look alike come from different tables or passages of the source.

Experiments:
Test in all cases: Kinase selectivity, P33-radiolabeled assay
Format in all cases: biochemical
Conditions in all cases: 10 μM ATP
CHK2 = target: T1, CHK2 (Homo sapiens, UniProt O96017)
T1 construct: purchased Reaction Biology Corp
In short: (§1)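 Activity relative to DMSO controls (%) was measured for compound at 10 μM. Assays ran at 10 μM ATP, in duplicate.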

Aurora A = target: T2, Aurora A (Homo sapiens, UniProt O14965)
T2 construct: purchased Reaction Biology Corp
T2 sequence (O14965 1-403): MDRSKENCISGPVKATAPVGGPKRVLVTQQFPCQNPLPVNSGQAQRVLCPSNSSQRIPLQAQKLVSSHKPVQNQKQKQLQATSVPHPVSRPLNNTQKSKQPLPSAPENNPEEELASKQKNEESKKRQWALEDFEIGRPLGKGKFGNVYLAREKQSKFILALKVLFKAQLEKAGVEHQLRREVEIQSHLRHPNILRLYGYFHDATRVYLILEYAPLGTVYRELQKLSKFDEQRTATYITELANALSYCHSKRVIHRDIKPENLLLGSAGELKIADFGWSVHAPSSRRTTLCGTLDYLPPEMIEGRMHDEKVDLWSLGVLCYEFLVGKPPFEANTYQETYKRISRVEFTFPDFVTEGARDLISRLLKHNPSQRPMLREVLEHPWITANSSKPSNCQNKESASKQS
In short: as §1

EGFR = target: T3, EGFR (Homo sapiens, UniProt P00533)
T3 construct: purchased Reaction Biology Corp
In short: as §1

FGR = target: T4, FGR (Homo sapiens, UniProt P09769)
T4 construct: purchased Reaction Biology Corp
In short: as §1

DDR2 = target: T5, DDR2 (Homo sapiens, UniProt Q16832)
T5 construct: purchased Reaction Biology Corp
T5 sequence (Q16832 22-855): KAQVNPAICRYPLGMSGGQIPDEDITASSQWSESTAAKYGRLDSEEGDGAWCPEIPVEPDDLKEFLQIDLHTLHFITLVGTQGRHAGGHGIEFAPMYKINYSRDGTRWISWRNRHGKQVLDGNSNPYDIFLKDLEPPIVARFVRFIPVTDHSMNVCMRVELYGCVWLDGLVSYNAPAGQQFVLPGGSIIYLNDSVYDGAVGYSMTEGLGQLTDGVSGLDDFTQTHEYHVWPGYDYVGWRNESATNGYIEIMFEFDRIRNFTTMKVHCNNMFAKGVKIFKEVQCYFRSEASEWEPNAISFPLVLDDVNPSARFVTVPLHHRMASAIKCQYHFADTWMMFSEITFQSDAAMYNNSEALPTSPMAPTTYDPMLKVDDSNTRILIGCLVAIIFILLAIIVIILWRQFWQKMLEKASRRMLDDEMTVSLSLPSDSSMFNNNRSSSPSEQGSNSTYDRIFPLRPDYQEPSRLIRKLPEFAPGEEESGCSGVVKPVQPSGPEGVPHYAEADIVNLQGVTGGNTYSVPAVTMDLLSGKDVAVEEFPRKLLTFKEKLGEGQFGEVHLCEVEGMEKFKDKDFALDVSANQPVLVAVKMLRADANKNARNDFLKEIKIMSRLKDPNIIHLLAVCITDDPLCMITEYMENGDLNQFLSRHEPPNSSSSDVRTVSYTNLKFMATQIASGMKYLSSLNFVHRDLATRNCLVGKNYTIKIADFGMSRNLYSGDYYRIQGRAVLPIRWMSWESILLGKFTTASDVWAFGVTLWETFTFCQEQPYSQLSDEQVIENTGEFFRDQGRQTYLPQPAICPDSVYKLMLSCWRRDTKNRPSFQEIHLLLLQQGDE
In short: as §1

NEK11 = target: T6, NEK11 (Homo sapiens, UniProt Q8NG66)
T6 construct: purchased Reaction Biology Corp
T6 sequence (Q8NG66 1-645): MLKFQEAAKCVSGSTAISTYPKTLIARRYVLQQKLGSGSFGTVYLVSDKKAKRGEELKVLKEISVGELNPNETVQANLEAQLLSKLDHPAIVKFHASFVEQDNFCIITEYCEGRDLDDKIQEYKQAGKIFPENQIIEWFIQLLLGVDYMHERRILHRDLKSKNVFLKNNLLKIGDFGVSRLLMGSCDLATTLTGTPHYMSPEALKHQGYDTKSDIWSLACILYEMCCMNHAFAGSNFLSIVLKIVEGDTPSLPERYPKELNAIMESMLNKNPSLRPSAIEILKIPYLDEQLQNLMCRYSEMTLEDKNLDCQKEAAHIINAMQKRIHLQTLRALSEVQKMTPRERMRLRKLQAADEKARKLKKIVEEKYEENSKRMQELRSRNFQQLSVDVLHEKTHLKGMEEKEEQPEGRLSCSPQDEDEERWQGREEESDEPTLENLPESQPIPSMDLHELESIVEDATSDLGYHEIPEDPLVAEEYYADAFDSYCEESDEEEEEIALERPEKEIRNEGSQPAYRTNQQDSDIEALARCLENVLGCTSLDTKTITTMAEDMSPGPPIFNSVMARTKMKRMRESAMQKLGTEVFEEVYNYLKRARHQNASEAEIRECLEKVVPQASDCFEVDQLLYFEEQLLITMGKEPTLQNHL
In short: as §1

c-Kit = target: T7, c-Kit (Homo sapiens, UniProt P10721)
T7 construct: purchased Reaction Biology Corp
In short: as §1

EPHA2 = target: T8, EPHA2 (Homo sapiens, UniProt P29317)
T8 construct: purchased Reaction Biology Corp
In short: as §1

FGFR4 = target: T9, FGFR4 (Homo sapiens, UniProt P22455)
T9 construct: purchased Reaction Biology Corp
In short: as §1

STK39/STLK3 = target: T10, STK39/STLK3 (Homo sapiens, UniProt Q9UEW8)
T10 construct: purchased Reaction Biology Corp
In short: as §1

PKCb2 = target: T11, PKCb2 (Homo sapiens, UniProt P05771)
T11 construct: purchased Reaction Biology Corp
In short: as §1

JAK1 = target: T12, JAK1 (Homo sapiens, UniProt P23458)
T12 construct: purchased Reaction Biology Corp
In short: as §1

[1] = read-out: % Enzyme Activity (relative to DMSO controls) AVG
[2] = read-out: % Enzyme Activity (relative to DMSO controls) Data 1
[3] = read-out: % Enzyme Activity (relative to DMSO controls) Data 2

T9 sequence (P22455 22-802): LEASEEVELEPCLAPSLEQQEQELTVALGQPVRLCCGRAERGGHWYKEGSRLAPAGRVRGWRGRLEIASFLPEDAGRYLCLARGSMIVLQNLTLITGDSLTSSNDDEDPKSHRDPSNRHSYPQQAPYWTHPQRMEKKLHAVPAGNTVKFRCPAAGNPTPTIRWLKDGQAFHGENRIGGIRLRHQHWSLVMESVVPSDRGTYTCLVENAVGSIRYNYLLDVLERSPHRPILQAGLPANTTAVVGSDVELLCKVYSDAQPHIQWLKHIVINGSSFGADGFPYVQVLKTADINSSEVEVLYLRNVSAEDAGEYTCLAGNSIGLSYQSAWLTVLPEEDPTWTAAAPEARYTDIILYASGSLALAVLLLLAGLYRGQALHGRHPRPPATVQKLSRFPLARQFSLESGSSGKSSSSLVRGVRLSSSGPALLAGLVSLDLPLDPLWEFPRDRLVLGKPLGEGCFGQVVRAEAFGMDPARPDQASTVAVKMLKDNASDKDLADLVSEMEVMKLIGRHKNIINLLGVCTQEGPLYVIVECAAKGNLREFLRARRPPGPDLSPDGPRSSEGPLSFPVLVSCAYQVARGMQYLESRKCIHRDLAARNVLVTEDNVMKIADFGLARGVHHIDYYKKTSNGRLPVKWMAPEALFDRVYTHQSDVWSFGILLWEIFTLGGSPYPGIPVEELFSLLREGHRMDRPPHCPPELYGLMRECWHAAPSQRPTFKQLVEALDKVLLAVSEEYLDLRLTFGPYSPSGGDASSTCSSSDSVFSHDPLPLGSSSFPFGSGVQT
T12 sequence (P23458 whole entry): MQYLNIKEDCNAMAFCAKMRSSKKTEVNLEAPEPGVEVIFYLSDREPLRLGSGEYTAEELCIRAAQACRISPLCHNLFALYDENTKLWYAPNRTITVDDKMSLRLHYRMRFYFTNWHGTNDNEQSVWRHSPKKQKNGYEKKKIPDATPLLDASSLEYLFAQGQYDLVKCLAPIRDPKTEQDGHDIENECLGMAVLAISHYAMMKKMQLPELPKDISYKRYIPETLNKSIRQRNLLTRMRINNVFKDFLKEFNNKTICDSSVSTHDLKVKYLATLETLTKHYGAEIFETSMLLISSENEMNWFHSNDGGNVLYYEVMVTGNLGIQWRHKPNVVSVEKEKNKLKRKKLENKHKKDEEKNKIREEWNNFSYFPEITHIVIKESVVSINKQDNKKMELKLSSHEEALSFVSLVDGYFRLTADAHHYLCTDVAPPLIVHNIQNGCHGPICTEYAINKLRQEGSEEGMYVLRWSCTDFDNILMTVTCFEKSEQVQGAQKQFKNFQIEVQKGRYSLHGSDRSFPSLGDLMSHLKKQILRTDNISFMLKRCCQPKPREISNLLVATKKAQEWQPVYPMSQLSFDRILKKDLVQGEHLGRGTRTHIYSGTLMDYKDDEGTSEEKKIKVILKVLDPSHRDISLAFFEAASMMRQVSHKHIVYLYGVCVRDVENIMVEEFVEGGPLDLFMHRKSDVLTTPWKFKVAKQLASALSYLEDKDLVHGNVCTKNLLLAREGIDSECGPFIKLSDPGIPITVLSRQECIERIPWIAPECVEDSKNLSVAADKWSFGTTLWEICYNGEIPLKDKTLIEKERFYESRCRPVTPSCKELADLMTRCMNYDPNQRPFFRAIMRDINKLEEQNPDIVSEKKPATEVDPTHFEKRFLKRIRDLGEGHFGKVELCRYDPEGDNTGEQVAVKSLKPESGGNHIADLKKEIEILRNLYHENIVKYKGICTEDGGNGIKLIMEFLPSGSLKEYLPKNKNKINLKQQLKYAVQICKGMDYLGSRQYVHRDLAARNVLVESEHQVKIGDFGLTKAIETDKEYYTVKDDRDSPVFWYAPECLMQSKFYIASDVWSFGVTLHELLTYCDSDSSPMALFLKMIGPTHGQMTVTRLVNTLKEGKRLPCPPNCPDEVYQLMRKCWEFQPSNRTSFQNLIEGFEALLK
T1 sequence (O96017 whole entry): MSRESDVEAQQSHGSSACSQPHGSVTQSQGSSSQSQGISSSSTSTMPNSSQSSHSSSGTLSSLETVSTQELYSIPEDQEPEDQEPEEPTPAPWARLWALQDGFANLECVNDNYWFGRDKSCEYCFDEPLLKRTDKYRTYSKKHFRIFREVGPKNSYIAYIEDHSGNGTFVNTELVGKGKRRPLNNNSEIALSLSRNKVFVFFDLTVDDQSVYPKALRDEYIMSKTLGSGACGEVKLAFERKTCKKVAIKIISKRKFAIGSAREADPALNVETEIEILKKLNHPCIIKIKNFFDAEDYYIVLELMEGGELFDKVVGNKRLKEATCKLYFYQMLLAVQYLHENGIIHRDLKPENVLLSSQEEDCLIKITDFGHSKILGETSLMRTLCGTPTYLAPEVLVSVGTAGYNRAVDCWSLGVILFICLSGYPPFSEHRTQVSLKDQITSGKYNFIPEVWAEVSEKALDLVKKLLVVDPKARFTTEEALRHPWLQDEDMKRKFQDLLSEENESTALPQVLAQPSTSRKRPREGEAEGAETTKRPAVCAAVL
T4 sequence (P09769 whole entry): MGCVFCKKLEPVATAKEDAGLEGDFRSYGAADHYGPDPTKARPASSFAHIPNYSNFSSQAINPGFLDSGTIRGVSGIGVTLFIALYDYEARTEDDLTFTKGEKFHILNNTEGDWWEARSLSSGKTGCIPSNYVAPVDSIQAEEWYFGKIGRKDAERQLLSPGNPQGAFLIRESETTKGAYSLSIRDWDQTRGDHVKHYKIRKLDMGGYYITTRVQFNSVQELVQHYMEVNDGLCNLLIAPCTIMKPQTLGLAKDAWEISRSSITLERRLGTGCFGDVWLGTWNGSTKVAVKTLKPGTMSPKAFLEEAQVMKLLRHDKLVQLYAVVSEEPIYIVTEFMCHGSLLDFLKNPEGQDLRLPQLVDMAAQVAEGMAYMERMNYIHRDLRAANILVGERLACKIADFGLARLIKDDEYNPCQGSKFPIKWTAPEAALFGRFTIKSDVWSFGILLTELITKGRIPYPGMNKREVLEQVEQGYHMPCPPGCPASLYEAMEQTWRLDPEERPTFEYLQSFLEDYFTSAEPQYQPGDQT
T3 sequence (P00533 25-1210): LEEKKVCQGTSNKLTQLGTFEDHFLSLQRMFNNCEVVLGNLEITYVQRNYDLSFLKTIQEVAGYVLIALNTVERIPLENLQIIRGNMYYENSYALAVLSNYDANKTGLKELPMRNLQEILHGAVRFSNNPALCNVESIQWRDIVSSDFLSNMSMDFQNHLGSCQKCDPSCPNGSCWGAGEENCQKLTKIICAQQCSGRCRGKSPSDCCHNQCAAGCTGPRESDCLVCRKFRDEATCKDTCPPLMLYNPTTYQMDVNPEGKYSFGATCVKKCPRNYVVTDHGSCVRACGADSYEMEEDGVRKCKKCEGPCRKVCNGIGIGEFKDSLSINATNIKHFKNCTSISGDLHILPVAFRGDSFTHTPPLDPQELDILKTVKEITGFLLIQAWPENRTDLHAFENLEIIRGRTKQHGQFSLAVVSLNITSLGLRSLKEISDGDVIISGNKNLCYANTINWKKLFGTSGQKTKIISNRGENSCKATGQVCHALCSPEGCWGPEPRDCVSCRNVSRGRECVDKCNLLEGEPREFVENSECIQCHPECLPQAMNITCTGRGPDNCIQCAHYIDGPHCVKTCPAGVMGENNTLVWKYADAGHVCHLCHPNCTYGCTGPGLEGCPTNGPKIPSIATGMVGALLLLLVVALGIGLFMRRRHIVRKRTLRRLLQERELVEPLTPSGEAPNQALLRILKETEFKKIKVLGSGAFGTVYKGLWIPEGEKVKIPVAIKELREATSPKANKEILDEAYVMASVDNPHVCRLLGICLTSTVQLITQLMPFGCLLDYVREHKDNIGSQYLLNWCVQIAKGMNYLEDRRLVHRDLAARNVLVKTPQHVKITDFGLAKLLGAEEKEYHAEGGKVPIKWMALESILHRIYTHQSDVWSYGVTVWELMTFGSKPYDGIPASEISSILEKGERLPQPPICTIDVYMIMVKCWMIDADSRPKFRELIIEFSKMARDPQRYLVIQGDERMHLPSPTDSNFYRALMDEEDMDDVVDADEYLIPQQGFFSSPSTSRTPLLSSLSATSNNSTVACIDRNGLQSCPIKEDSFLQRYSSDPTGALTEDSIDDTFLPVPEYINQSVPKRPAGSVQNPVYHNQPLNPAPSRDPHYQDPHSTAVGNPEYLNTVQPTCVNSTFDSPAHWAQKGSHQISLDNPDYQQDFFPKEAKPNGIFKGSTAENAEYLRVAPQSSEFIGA
T11 sequence (P05771 1-673 isoform P05771-2): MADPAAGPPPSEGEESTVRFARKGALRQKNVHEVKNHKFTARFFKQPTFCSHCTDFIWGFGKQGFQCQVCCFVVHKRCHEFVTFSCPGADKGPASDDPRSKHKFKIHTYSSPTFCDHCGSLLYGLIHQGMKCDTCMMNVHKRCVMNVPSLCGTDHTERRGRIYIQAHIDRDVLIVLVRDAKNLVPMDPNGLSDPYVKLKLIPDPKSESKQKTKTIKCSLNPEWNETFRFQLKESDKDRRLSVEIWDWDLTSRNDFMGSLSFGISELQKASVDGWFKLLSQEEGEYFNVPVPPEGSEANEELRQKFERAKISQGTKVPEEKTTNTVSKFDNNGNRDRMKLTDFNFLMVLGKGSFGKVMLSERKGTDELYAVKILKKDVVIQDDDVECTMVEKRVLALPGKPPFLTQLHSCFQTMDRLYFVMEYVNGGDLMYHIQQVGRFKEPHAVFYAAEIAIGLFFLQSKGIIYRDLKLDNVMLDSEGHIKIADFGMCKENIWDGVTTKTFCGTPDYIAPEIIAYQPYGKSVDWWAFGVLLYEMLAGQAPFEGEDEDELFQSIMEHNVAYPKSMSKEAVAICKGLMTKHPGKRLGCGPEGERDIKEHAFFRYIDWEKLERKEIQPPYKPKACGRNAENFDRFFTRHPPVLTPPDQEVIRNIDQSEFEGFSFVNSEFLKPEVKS

SMILES: CC(C)(C)C(=O)N1N=CC[C@H]1c1ccccc1 [GSK′963]
- remaining activity at 10 µM (CHK2; [1]): 105%
- remaining activity at 10 µM (CHK2; [2]): 106%
- remaining activity at 10 µM (CHK2; [3]): 104%
- remaining activity at 10 µM (Aurora A; [1]): 102%
- remaining activity at 10 µM (Aurora A; [2]): 101%
- remaining activity at 10 µM (Aurora A; [3]): 102%
- remaining activity at 10 µM (EGFR; [1]): 106%
- remaining activity at 10 µM (EGFR; [2]): 105%
- remaining activity at 10 µM (EGFR; [3]): 108%
- remaining activity at 10 µM (FGR; [1]): 107%
- remaining activity at 10 µM (FGR; [2]): 106%
- remaining activity at 10 µM (FGR; [3]): 108%
- remaining activity at 10 µM (DDR2; [1]): 93.2%
- remaining activity at 10 µM (DDR2; [2]): 94%
- remaining activity at 10 µM (DDR2; [3]): 92.4%
- remaining activity at 10 µM (NEK11; [1]): 79.1%
- remaining activity at 10 µM (NEK11; [2]): 77.3%
- remaining activity at 10 µM (NEK11; [3]): 80.9%
- remaining activity at 10 µM (c-Kit; [1]): 83.6%
- remaining activity at 10 µM (c-Kit; [2]): 83%
- remaining activity at 10 µM (c-Kit; [3]): 84.1%
- remaining activity at 10 µM (EPHA2; [1]): 96.3%
- remaining activity at 10 µM (EPHA2; [2]): 95.6%
- remaining activity at 10 µM (EPHA2; [3]): 97%
- remaining activity at 10 µM (FGFR4; [1]): 93.5%
- remaining activity at 10 µM (FGFR4; [2]): 91.5%
- remaining activity at 10 µM (FGFR4; [3]): 95.6%
- remaining activity at 10 µM (STK39/STLK3; [1]): 95.1%
- remaining activity at 10 µM (STK39/STLK3; [2]): 100%
- remaining activity at 10 µM (STK39/STLK3; [3]): 89.9%
- remaining activity at 10 µM (PKCb2; [1]): 105%
- remaining activity at 10 µM (PKCb2; [2]): 105%
- remaining activity at 10 µM (PKCb2; [3]): 106%
- remaining activity at 10 µM (JAK1; [1]): 98.8%
- remaining activity at 10 µM (JAK1; [2]): 97.9%
- remaining activity at 10 µM (JAK1; [3]): 99.8%
